# From PMC4501059, “Responding to the challenge of untreatable gonorrhea: ETX0914, a first-in-class agent with a distinct mechanism-of-action against bacterial Type II topoisomerases” (Scientific Reports, 2015)
# How the values were obtained:
# in vivo = details: rat, po
# [1] = rat, in vivo
# [2] = Human plasma protein binding (PPB); details: independent of concentration 1–50 μM
# [3] = plasma protein binding, mouse; details: in vitro at 1-50 µM
# [4] = Quantitative whole-body autoradiography, tissue distribution of radioactivity; assay type: in vivo, male pigmented Lister Hood rat
# Procedure: Quantitative whole-body autoradiography. The distribution of radioactivity in male, pigmented Lister Hood rat tissues was obtained after a single intravenous infusion over 15 minutes of ^14C-AZD0914 at 25 mg/kg (51 μmol/kg, 5 MBq/kg) using quantitative whole-body autoradiography with phosphor-imaging technology. The potential of this compound and/or its metabolites to bind to melanin-containing tissues and/or to potentially bind covalently to tissues was also evaluated. The rats were sacrificed at 5 minutes, 1 hour, 4 hours, 24 hours, 48 hours, 7 days and 21 days after the end of infusion with enflurane (Efrane®, Abbott Laboratories, USA), and frozen in acetone, cooled to -70 °C with solid CO2. The 7- and 21- day animals could not be quantified as no trace of radioactivity was observed. After removal of limbs and tail, the carcass was embedded, with left lateral side uppermost, in a 2.5% (w/v) aqueous solution of caramellosum natricum and frozen for at least 10 minutes. The animal blocks were stored at -20 °C until sectioning. Sagittal whole-body sections (30 μm) were obtained to include organs and tissues of interest. At sectioning each block was mounted in a Leica CM3600 Cryomacrotome (Leica Microsystems GmbH, Germany) maintained at approximately -20 °C. All sections were dried at -20 °C for at least 1 day prior to exposure on phosphor-imaging plates. Together with two sets of calibration standards, the sections were placed on phosphor-imaging plates, which had been pre-covered with a thin plastic film. The imaging plates were exposed for 1 to 3 days at +4 to +12 °C, enclosed in light tight cassettes in a lead shielding box to protect from environmental radiation. Following exposure, the imaging plates were scanned at a pixel size of 50 μm using FLA-7000 (FujiFilm Sverige AB, Sweden). The tissues and organs of interest were quantified using AIDA 3.5 (Raytest, Germany). The quantification limit was defined as twice the background value of the imaging plate and varied between the plates from 0.23 to 0.33 nmol/g. The various tissues and organs were identified either on the autoradiograms or on the corresponding tissue sections.
# [5] = 5 minutes after 25 mg/kg iv infusion
# [6] = 1 hour after 25 mg/kg iv infusion
# [7] = 4 hours after 25 mg/kg iv infusion
compound,measurement,setting,value
CC(=O)NC[C@H]1CN(c2ccc(N3CCOCC3)c(F)c2)C(=O)O1 [Linezolid],AUC,in vivo,1900 µM·h
same,neutrophil count,[1],showing suppression
same,reticulocytes count,[1]; 250 mg/kg,significant suppression
C[C@@H]1CN2c3c(cc4c(N5C(=O)OC[C@@H]5C)noc4c3F)C[14C]3(C(=O)NC(=O)NC3=O)[C@H]2[C@H](C)O1 [^14C-ETX0914],PPB (%free),[2],17.0 % free
same,PPB (%free),[3],22.1 %free
same,Total radioactivity: Adrenal cortex,[4]; [5],84 nmol/g
same,Total radioactivity: Adrenal medulla,[4]; [5],43 nmol/g
same,Total radioactivity: Aortic wall,[4]; [5],53 nmol/g
same,Total radioactivity: Bile,[4]; [5],1200 nmol/g
same,Total radioactivity: Bone marrow,[4]; [5],35 nmol/g
same,Total radioactivity: Brain,[4]; [5],0.79 nmol/g
same,Total radioactivity: Choroid & retinal pigment epithelium,[4]; [5],16 nmol/g
same,Total radioactivity: Heart blood,[4]; [5],27 nmol/g
same,Total radioactivity: Liver,[4]; [5],320 nmol/g
same,Total radioactivity: Lung,[4]; [5],52 nmol/g
same,Total radioactivity: Lymph node,[4]; [5],29 nmol/g
same,Total radioactivity: Myocardium,[4]; [5],73 nmol/g
same,Total radioactivity: Renal cortex,[4]; [5],170 nmol/g
same,Total radioactivity: Renal medulla (inner),[4]; [5],70 nmol/g
same,Total radioactivity: Renal medulla (outer),[4]; [5],68 nmol/g
same,Total radioactivity: Skeletal muscle,[4]; [5],29 nmol/g
same,"Total radioactivity: Skin, pigmented",[4]; [5],15 nmol/g
same,Total radioactivity: Spinal cord,[4]; [5],1.0 nmol/g
same,Total radioactivity: Testis,[4]; [5],2.4 nmol/g
same,Total radioactivity: Urine,[4]; [5],51 nmol/g
same,Total radioactivity: White fat,[4]; [5],6.6 nmol/g
same,Total radioactivity: Adrenal cortex,[4]; [6],40 nmol/g
same,Total radioactivity: Adrenal medulla,[4]; [6],26 nmol/g
same,Total radioactivity: Aortic wall,[4]; [6],58 nmol/g
same,Total radioactivity: Bile,[4]; [6],1500 nmol/g
same,Total radioactivity: Bone marrow,[4]; [6],20 nmol/g
same,Total radioactivity: Brain,[4]; [6],0.72 nmol/g
same,Total radioactivity: Choroid & retinal pigment epithelium,[4]; [6],17 nmol/g
same,Total radioactivity: Heart blood,[4]; [6],18 nmol/g
same,Total radioactivity: Liver,[4]; [6],190 nmol/g
same,Total radioactivity: Lung,[4]; [6],31 nmol/g
same,Total radioactivity: Lymph node,[4]; [6],23 nmol/g
same,Total radioactivity: Myocardium,[4]; [6],42 nmol/g
same,Total radioactivity: Renal cortex,[4]; [6],130 nmol/g
same,Total radioactivity: Renal medulla (inner),[4]; [6],32 nmol/g
same,Total radioactivity: Renal medulla (outer),[4]; [6],120 nmol/g
same,Total radioactivity: Skeletal muscle,[4]; [6],20 nmol/g
same,"Total radioactivity: Skin, pigmented",[4]; [6],20 nmol/g
same,Total radioactivity: Spinal cord,[4]; [6],1.0 nmol/g
same,Total radioactivity: Testis,[4]; [6],5.7 nmol/g
same,Total radioactivity: Urine,[4]; [6],400 nmol/g
same,Total radioactivity: White fat,[4]; [6],8.9 nmol/g
same,Total radioactivity: Adrenal cortex,[4]; [7],8.7 nmol/g
same,Total radioactivity: Adrenal medulla,[4]; [7],4.5 nmol/g
same,Total radioactivity: Aortic wall,[4]; [7],13 nmol/g
same,Total radioactivity: Bone marrow,[4]; [7],4.0 nmol/g
same,Total radioactivity: Choroid & retinal pigment epithelium,[4]; [7],8.1 nmol/g
same,Total radioactivity: Heart blood,[4]; [7],4.2 nmol/g
same,Total radioactivity: Liver,[4]; [7],69 nmol/g
same,Total radioactivity: Lung,[4]; [7],6.9 nmol/g
same,Total radioactivity: Lymph node,[4]; [7],4.1 nmol/g
same,Total radioactivity: Myocardium,[4]; [7],6.9 nmol/g
same,Total radioactivity: Renal cortex,[4]; [7],39 nmol/g
same,Total radioactivity: Renal medulla (inner),[4]; [7],8.0 nmol/g
same,Total radioactivity: Renal medulla (outer),[4]; [7],18 nmol/g
same,Total radioactivity: Skeletal muscle,[4]; [7],4.2 nmol/g
same,"Total radioactivity: Skin, pigmented",[4]; [7],3.6 nmol/g
same,Total radioactivity: Spinal cord,[4]; [7],0.30 nmol/g
same,Total radioactivity: Testis,[4]; [7],2.6 nmol/g
same,Total radioactivity: Urine,[4]; [7],100 nmol/g
same,Total radioactivity: Brain,"[4]; 4 hours after 25 mg/kg iv infusion, BLQ = below limit of quantification (0.24)",BLQ^d
same,Total radioactivity: Liver,[4]; 24 hours after 25 mg/kg iv infusion,0.35 nmol/g
same,Total radioactivity: Liver,"[4]; 48 hours after 25 mg/kg iv infusion, BLQ = below limit of quantification (0.24)",BLQ
same,melanin or covalent binding of parent and/or metabolites to tissue,[4]; pigmented rat,no melanin or covalent binding
same,CNS penetration,"[4]; rat, whole-body autoradiography",very low CNS penetration
